Test results: ChEMBL document CHEMBL5137093, “Improving Drug Delivery While Tailoring Prodrug Activation to Modulate Cmax and Cmin by Optimization of (Carbonyl)oxyalkyl Linker-Based Prodrugs of Atazanavir” (J Med Chem, 2022)

Assays:
[1] = Aqueous stability of the compound in phosphate buffer at pH 6.5 assessed as compound half life measured after 24 hrs by UPLC analysis; assay type: physicochemical; details: buffer, pH 6.5, 24 h, 24 h
[2] = AUClast in Sprague-Dawley rat at 3 ml/kg,po measured upto 24 hrs by UPLC-MS/MS analysis; assay type: ADME; set-up: time < 24 hrs, dose 3 ml/kg, route po; details: in vivo
[3] = Aqueous stability of the compound in acetate buffer at pH 4 assessed as compound half life measured after 24 hrs by UPLC analysis; assay type: physicochemical; details: buffer, pH 4, 24 h, 24 h
[4] = Aqueous solubility of compound at pH 4 by UPLC analysis; assay type: physicochemical; details: buffer
[5] = AUClast in Sprague-Dawley rat at 25 ml/kg,po measured upto 24 hrs by UPLC-MS/MS analysis; assay type: ADME; set-up: time < 24 hrs, dose 25 ml/kg, route po; details: in vivo
[6] = Ratio of Cmax/Cmin of Atazanavir in Sprague-Dawley rat at 3 ml/kg,po measured after 24 hrs by UPLC-MS/MS analysis; assay type: ADME; details: in vivo
[7] = Relative Cmax ratio of Atazanavir in Sprague-Dawley rat at 1 ml/kg,iv measured upto 24 hrs by UPLC-MS/MS analysis; assay type: ADME; details: in vivo
[8] = Ratio of Cmax/Cmin of Atazanavir in Sprague-Dawley rat at 1 ml/kg,iv measured after 24 hrs by UPLC-MS/MS analysis; assay type: ADME; details: in vivo
[9] = Relative AUC ratio of Atazanavir in Sprague-Dawley rat at 3 ml/kg,po measured upto 24 hrs by UPLC-MS/MS analysis; assay type: ADME; details: in vivo
[10] = Aqueous solubility of compound at pH 1 by UPLC analysis; assay type: physicochemical; details: buffer
[11] = Ratio of AUC of Atazanavir in Sprague-Dawley rat at 25 ml/kg,po measured upto 24 hrs by UPLC-MS/MS analysis; assay type: ADME; details: in vivo
[12] = Clearance in Sprague-Dawley rat at 1 ml/kg,iv measured upto 24 hrs by UPLC-MS/MS analysis; assay type: ADME; details: in vivo
[13] = Cmax in Sprague-Dawley rat at 1 ml/kg,iv measured upto 24 hrs by UPLC-MS/MS analysis; assay type: ADME; set-up: dose 1 ml/kg, time < 24 hrs, route iv; details: in vivo
[14] = Cmax in Sprague-Dawley rat at 3 ml/kg,po measured upto 24 hrs by UPLC-MS/MS analysis; assay type: ADME; set-up: dose 3 ml/kg, time < 24 hrs, route po; details: in vivo
[15] = Volume of distribution at steady state in Sprague-Dawley rat at 1 ml/kg,iv measured upto 24 hrs by UPLC-MS/MS analysis; assay type: ADME; details: in vivo, read-out: Vdss
[16] = AUClast in Sprague-Dawley rat at 1 ml/kg,iv measured upto 24 hrs by UPLC-MS/MS analysis; assay type: ADME; set-up: dose 1 ml/kg, time < 24 hrs, route iv; details: in vivo
[17] = Fold ratio of total AUC of Atazanavir in Sprague-Dawley rat at 1 ml/kg,iv measured upto 24 hrs by UPLC-MS/MS analysis; assay type: ADME; details: in vivo
[18] = Relative Cmax ratio of Atazanavir in Sprague-Dawley rat at 25 ml/kg,po measured upto 24 hrs by UPLC-MS/MS analysis; assay type: ADME; details: in vivo
[19] = Half life in Sprague-Dawley rat at 1 ml/kg,iv measured upto 24 hrs by UPLC-MS/MS analysis; assay type: ADME; details: in vivo
[20] = Tmax in Sprague-Dawley rat at 3 ml/kg,po measured upto 24 hrs by UPLC-MS/MS analysis; assay type: ADME; details: in vivo
[21] = Relative AUC ratio of Atazanavir in Sprague-Dawley rat at 25 ml/kg,po measured upto 24 hrs by UPLC-MS/MS analysis; assay type: ADME; details: in vivo
[22] = Ratio of AUC of Atazanavir in Sprague-Dawley rat at 1 ml/kg,iv measured upto 24 hrs by UPLC-MS/MS analysis; assay type: ADME; details: in vivo
[23] = molecular target: T1, UDP-glucuronosyltransferase 1A1 (Homo sapiens, UniProt P22309); assay: Inhibition of UGT1A1 in human liver microsomes using beta-estradiol as substrate incubated for 40 mins by LC-MS/MS analysis; set-up: species or system Microsome
T1 sequence (P22309 whole entry): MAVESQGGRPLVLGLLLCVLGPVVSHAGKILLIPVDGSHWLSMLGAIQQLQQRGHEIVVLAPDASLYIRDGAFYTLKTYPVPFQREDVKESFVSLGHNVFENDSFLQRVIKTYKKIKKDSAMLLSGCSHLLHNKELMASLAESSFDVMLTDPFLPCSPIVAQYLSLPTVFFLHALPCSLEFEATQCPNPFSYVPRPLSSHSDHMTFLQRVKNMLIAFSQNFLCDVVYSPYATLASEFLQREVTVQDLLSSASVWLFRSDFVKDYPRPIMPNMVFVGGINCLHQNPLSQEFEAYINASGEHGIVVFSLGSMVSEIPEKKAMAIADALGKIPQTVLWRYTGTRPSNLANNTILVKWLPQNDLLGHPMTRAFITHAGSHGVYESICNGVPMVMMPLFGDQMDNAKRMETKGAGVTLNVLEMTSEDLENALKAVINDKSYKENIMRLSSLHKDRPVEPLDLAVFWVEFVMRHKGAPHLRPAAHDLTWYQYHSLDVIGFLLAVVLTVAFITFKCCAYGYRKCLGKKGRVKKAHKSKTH

[24] = Fold ratio of total AUC of Atazanavir in Sprague-Dawley rat at 3 ml/kg,po measured upto 24 hrs by UPLC-MS/MS analysis; assay type: ADME; details: in vivo
[25] = Fold ratio of total AUC of Atazanavir in Sprague-Dawley rat at 25 ml/kg,po measured upto 24 hrs by UPLC-MS/MS analysis; assay type: ADME; details: in vivo
[26] = molecular target: Voltage-gated inwardly rectifying potassium channel KCNH2 (Homo sapiens, UniProt Q12809); assay: Inhibition of human ERG by patch-clamp assay; assay type: toxicity
Voltage-gated inwardly rectifying potassium channel KCNH2, sequence (Q12809 whole entry): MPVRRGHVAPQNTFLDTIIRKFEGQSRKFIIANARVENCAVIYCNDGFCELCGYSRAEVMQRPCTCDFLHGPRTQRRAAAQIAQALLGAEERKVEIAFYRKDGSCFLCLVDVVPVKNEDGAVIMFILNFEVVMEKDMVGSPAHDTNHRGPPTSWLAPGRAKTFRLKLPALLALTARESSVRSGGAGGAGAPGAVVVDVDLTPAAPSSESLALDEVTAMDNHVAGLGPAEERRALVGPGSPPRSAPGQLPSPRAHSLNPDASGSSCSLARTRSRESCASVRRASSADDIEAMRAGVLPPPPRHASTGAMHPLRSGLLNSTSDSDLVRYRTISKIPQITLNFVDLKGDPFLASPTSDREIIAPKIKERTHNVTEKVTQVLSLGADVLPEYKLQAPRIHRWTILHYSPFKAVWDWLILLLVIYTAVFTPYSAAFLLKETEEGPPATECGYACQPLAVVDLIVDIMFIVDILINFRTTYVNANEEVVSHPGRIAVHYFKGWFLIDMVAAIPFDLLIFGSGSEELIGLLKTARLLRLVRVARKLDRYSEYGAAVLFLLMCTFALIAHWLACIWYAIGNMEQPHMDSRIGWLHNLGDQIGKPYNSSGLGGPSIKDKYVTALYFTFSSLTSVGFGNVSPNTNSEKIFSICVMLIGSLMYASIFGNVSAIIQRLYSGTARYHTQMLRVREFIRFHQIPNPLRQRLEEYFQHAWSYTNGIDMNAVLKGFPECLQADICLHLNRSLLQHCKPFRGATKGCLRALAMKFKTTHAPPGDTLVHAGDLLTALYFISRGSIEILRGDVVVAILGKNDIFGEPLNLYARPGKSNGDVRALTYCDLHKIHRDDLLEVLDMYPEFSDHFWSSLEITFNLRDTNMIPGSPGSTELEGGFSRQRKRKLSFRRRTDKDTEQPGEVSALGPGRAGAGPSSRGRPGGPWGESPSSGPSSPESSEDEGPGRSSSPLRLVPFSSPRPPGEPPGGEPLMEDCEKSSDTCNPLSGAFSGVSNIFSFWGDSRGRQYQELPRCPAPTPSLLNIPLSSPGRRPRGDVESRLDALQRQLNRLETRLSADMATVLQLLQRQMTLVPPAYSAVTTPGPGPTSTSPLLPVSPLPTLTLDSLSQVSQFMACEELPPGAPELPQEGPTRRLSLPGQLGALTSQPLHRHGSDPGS

[27] = Ratio of AUC of Atazanavir in Sprague-Dawley rat at 3 ml/kg,po measured upto 24 hrs by UPLC-MS/MS analysis; assay type: ADME; details: in vivo
[28] = Relative AUC ratio of Atazanavir in Sprague-Dawley rat at 1 ml/kg,iv measured upto 24 hrs by UPLC-MS/MS analysis; assay type: ADME; details: in vivo
[29] = Ratio of Cmax/Cmin of Atazanavir in Sprague-Dawley rat at 25 ml/kg,po measured after 24 hrs by UPLC-MS/MS analysis; assay type: ADME; details: in vivo
[30] = Relative Cmax ratio of Atazanavir in Sprague-Dawley rat at 3 ml/kg,po measured upto 24 hrs by UPLC-MS/MS analysis; assay type: ADME; details: in vivo
[31] = Tmax in Sprague-Dawley rat at 25 ml/kg,po measured upto 24 hrs by UPLC-MS/MS analysis; assay type: ADME; details: in vivo
[32] = molecular target: T1, UDP-glucuronosyltransferase 1A1; assay: Inhibition of human recombinant UGT1A1 using bilirubin as substrate incubated for 40 mins by LC-MS/MS analysis
[33] = Cmax in Sprague-Dawley rat at 25 ml/kg,po measured upto 24 hrs by UPLC-MS/MS analysis; assay type: ADME; set-up: time < 24 hrs, dose 25 ml/kg, route po; details: in vivo
[34] = Relative AUC ratio of Atazanavir in Sprague-Dawley rat at 30 ml/kg,po measured upto 24 hrs by UPLC-MS/MS analysis; assay type: ADME; details: in vivo
[35] = AUClast in Sprague-Dawley rat at 30 ml/kg,po measured upto 24 hrs by UPLC-MS/MS analysis; assay type: ADME; set-up: time < 24 hrs, dose 30 ml/kg, route po; details: in vivo
[36] = Cmax in Sprague-Dawley rat at 30 ml/kg,po measured upto 24 hrs by UPLC-MS/MS analysis; assay type: ADME; set-up: time < 24 hrs, dose 30 ml/kg, route po; details: in vivo
[37] = Ratio of AUC of Atazanavir in Sprague-Dawley rat at 30 ml/kg,po measured upto 24 hrs by UPLC-MS/MS analysis; assay type: ADME; details: in vivo
[38] = Relative Cmax ratio of Atazanavir in Sprague-Dawley rat at 30 ml/kg,po measured upto 24 hrs by UPLC-MS/MS analysis; assay type: ADME; details: in vivo
[39] = Fold ratio of total AUC of Atazanavir in Sprague-Dawley rat at 30 ml/kg,po measured upto 24 hrs by UPLC-MS/MS analysis; assay type: ADME; details: in vivo
[40] = Tmax in Sprague-Dawley rat at 30 ml/kg,po measured upto 24 hrs by UPLC-MS/MS analysis; assay type: ADME; details: in vivo
[41] = Ratio of Cmax/Cmin of Atazanavir in Sprague-Dawley rat at 30 ml/kg,po measured after 24 hrs by UPLC-MS/MS analysis; assay type: ADME; details: in vivo

| Compound | t1/2 [1] | t1/2 [3] | solubility [4] | Ratio [6] | Ratio [7] | Ratio [8] | Ratio [9] | solubility [10] | clearance [12] | Cmax [13] | Vd [15] | AUC(0-t) at 24 h [16] | Ratio [17] | half-life [19] | Ratio [22] | Ratio [24] | Ratio [27] | Ratio [28] | Ratio [30] | other results |
| --- | --- | --- | --- | --- | --- | --- | --- | --- | --- | --- | --- | --- | --- | --- | --- | --- | --- | --- | --- | --- |
| COC(=O)N[C@H](C(=O)N[C@@H](Cc1ccccc1)[C@H](CN(Cc1ccc(-c2ccccn2)cc1)NC(=O)[C@@H](NC(=O)OC)C(C)(C)C)OC(=O)OC(OC(=O)[C@H](N)C(C)C)C(C)C)C(C)(C)C (stereo in doubt; 5j) | 15.3 h | 334.3 h | > 1900 µg/mL | 86.9 | 1.01 | 431.7 | 17.7 | > 1900 µg/mL | 47 mL/min/kg | 371 nM | 7.7 L/kg | 0.356 µM·h | 7.8 | 4 h | 0.08 | 18 | 0.02 | 7.3 | 8.2 | AUClast ([2]; 24 h): 0.12 µM·h; AUC(0-t) at 24 h [5]: 1.23 µM·h; Ratio [11]: 0.03; Cmax ([14]; 24 h): 93 nM; Ratio [18]: 1; Tmax ([20]; po, 24 h): 0.4 h; Ratio [21]: 1.88; IC50 [23]: 2100 nM; Ratio [25]: 1.94; IC50 [26]: 8800 nM; Ratio [29]: 27.8; Tmax [31]: 2.3 h; IC50 [32]: 1000 nM; Cmax [33]: 123 nM |
| COC(=O)N[C@H](C(=O)N[C@@H](Cc1ccccc1)[C@H](CN(Cc1ccc(-c2ccccn2)cc1)NC(=O)[C@@H](NC(=O)OC)C(C)(C)C)OC(=O)OC(OC(=O)[C@@H](NC(=O)[C@H](N)C(C)C)C(C)C)C(C)C)C(C)(C)C (stereo in doubt; 6h) | 9.2 h | 334.3 h | > 1300 µg/mL | 6.4 | 0.11 | 22.8 | 7.3 | > 2000 µg/mL | 2 mL/min/kg | 2180 nM | 1 L/kg | 10.5 µM·h | 18.8 | 7 h | 7.31 | 111.7 | 14.4 | 2.3 | 1 | AUC(0-t) at 24 h ([2]; Sprague-Dawley, 3 ml/kg): 40.1 µM·h; Ratio [34]: 0.29; AUC(0-t) at 24 h [35]: 68.3 µM·h; Cmax [36]: 4130 nM; Cmax ([14]; Sprague-Dawley, 3 ml/kg): 3060 nM; Ratio [37]: 11.46; Tmax ([20]; Sprague-Dawley, read-out: Tmax): 3 h; Ratio [38]: 0.08; Ratio [39]: 3.56; Tmax [40]: 3 h; Ratio [41]: 5.8 |
